Experimental data reported in ChEMBL document CHEMBL3046856, “Synthesis and fungicidal activity of novel pimprinine analogues” (2012).

How the values were obtained:
Format in all cases: functional
Alternaria solani [1] = experiment: Fungicidal activity against Alternaria solani grown on compound supplemented artificial media assessed as control of disease or pathogen at 20 ppm measured after 5 to 14 days by artificial media assay
Alternaria solani [2] = experiment: Fungicidal activity against Alternaria solani grown on compound supplemented artificial media assessed as control of disease or pathogen at 2 ppm measured after 5 to 14 days by artificial media assay
Pythium dissimile [3] = experiment: Fungicidal activity against Pythium dissimile grown on compound supplemented artificial media assessed as control of disease or pathogen at 2 ppm measured after 5 to 14 days by artificial media assay
Pythium dissimile [4] = experiment: Fungicidal activity against Pythium dissimile grown on compound supplemented artificial media assessed as control of disease or pathogen at 20 ppm measured after 5 to 14 days by artificial media assay
Uromyces viciae-fabae = experiment: Fungicidal activity against Uromyces viciae-fabae infected compound pre-treated bean leaf pieces assessed as control of disease or pathogen at 100 ppm measured after 5 to 14 days by leaf-piece assay
[5] = Fungicidal activity against Zymoseptoria tritici infected on compound pre-treated wheat leaf pieces assessed as control of disease or pathogen at 100 ppm measured after 5 to 14 days by leaf-piece assay
Botrytis cinerea [6] = experiment: Fungicidal activity against Botryotinia fuckeliana grown on compound supplemented artificial media assessed as control of disease or pathogen at 2 ppm measured after 5 to 14 days by artificial media assay
Botrytis cinerea [7] = experiment: Fungicidal activity against Botryotinia fuckeliana grown on compound supplemented artificial media assessed as control of disease or pathogen at 20 ppm measured after 5 to 14 days by artificial media assay

Row | Compound | Activity (Alternaria solani [1]) | Activity (Alternaria solani [2]) | Activity (Pythium dissimile [3]) | Activity (Pythium dissimile [4]) | Activity (Uromyces viciae-fabae) | Activity [5] | Activity (Botrytis cinerea [6]) | Activity (Botrytis cinerea [7])
1 | COC(=O)n1cc(-c2ocnc2Br)c2ccccc21 | 0% | 0% | 0% | 0% | 0% | 0% |  | 
2 | COCC(=O)n1cc(-c2ocnc2Br)c2ccccc21 | 99% | 0% | 0% | 77% | 77% | 0% | 0% | 99%
3 | Brc1ncoc1-c1cn(CC2CC2)c2ccccc12 | 0% | 0% | 0% | 55% | 0% | 0% | 0% | 0%
4 | c1ccc2c(-c3cnco3)c[nH]c2c1 | 77% | 0% | 0% | 99% | 0% | 0% | 0% | 0%
5 | Brc1ncoc1-c1c[nH]c2ccccc12 | 99% | 0% | 0% | 99% | 77% | 0% | 0% | 99%
6 | Cn1cc(-c2ocnc2Cl)c2ccccc21 | 0% | 0% | 0% | 0% | 77% | 0% | 0% | 0%
7 | CCn1cc(-c2ocnc2Cl)c2ccccc21 | 0% | 0% | 0% | 55% | 99% | 0% | 0% | 0%
8 | C=CCn1cc(-c2ocnc2Cl)c2ccccc21 | 0% | 0% | 0% | 0% | 99% | 0% | 0% | 0%
9 | CC(=O)n1cc(-c2ocnc2Cl)c2ccccc21 | 0% | 0% | 0% | 0% | 0% | 0% | 0% | 0%
10 | CCC(=O)n1cc(-c2ocnc2Cl)c2ccccc21 | 0% | 0% | 0% | 0% | 0% | 0% | 0% | 0%
11 | CCS(=O)(=O)n1cc(-c2ocnc2Cl)c2ccccc21 | 0% | 0% | 0% | 27% | 55% | 0% | 0% | 0%
12 | O=C(CCl)n1cc(-c2ocnc2Cl)c2ccccc21 | 55% | 0% | 0% | 99% | 49% | 0% | 0% | 99%
13 | O=C(C(Cl)Cl)n1cc(-c2ocnc2Cl)c2ccccc21 | 99% | 0% | 0% | 99% | 0% | 0% | 0% | 99%
14 | O=C(n1cc(-c2ocnc2Cl)c2ccccc21)C(Cl)(Cl)Cl | 99% | 0% | 0% | 99% | 55% | 0% | 0% | 99%
15 | CC(Cl)C(=O)n1cc(-c2ocnc2Cl)c2ccccc21 (stereo not given) | 55% | 0% | 0% | 0% | 55% | 0% | 0% | 0%
16 | COC(=O)n1cc(-c2ocnc2Cl)c2ccccc21 | 0% | 0% | 0% | 0% | 0% | 0% |  | 
17 | COCC(=O)n1cc(-c2ocnc2Cl)c2ccccc21 | 99% | 0% | 0% | 55% | 55% | 0% | 0% | 77%

Row | Compound | Activity (Alternaria solani [1]) | Activity (Alternaria solani [2]) | Activity (Pythium dissimile [3]) | Activity (Pythium dissimile [4]) | Activity (Uromyces viciae-fabae) | Activity [5] | Activity (Botrytis cinerea [6]) | Activity (Botrytis cinerea [7])
18 | CCOC(=O)Cn1cc(-c2ocnc2Cl)c2ccccc21 | 0% | 0% | 0% | 0% | 0% | 0% | 0% | 0%
19 | CCOC(=O)C(=O)n1cc(-c2ocnc2Cl)c2ccccc21 | 99% | 0% | 0% | 77% | 0% | 33% | 0% | 99%
20 | Fc1ccc(Cn2cc(-c3ocnc3Cl)c3ccccc32)c(F)c1 | 0% | 0% | 0% | 0% | 27% | 0% | 0% | 0%
21 | Clc1ncoc1-c1cn(CC2CO2)c2ccccc12 (stereo not given) | 0% | 0% | 0% | 0% | 77% | 0% | 0% | 0%
22 | Clc1ncoc1-c1cn(CC2CC2)c2ccccc12 | 0% | 0% | 0% | 99% | 55% | 33% | 0% | 0%
23 | Cn1cc(-c2ocnc2Br)c2ccccc21 | 0% | 0% | 0% | 0% | 55% | 0% | 0% | 0%
24 | CCn1cc(-c2ocnc2Br)c2ccccc21 | 55% | 0% | 49% | 55% | 99% | 0% | 0% | 0%
25 | C=CCn1cc(-c2ocnc2Br)c2ccccc21 | 0% | 0% | 0% | 0% | 49% | 18% | 0% | 27%
26 | ClC(Cl)=CCn1cc(-c2ocnc2Br)c2ccccc21 | 0% | 0% | 0% | 0% | 0% | 0% | 0% | 0%
27 | CC(=O)n1cc(-c2ocnc2Br)c2ccccc21 | 0% | 0% | 0% | 0% | 0% | 0% | 0% | 0%
28 | CCC(=O)n1cc(-c2ocnc2Br)c2ccccc21 | 0% | 0% | 0% | 0% | 0% | 0% | 0% | 0%
29 | CCS(=O)(=O)n1cc(-c2ocnc2Br)c2ccccc21 | 0% | 0% | 0% | 0% | 0% | 0% | 0% | 0%
30 | O=C(CCl)n1cc(-c2ocnc2Br)c2ccccc21 | 99% | 27% | 0% | 99% | 49% | 18% | 0% | 99%
31 | O=C(C(Cl)Cl)n1cc(-c2ocnc2Br)c2ccccc21 | 99% | 0% | 0% | 77% | 27% | 0% | 0% | 99%
32 | CC(Cl)C(=O)n1cc(-c2ocnc2Br)c2ccccc21 (stereo not given) | 55% | 0% | 0% | 0% | 27% | 0% | 0% | 0%
33 | Clc1ncoc1-c1c[nH]c2ccccc12 [Streptochlorin] | 99% | 99% | 0% | 99% | 55% | 36% | 0% | 99%
